This note sets out measurements from patent US12059400B2, “Medical compound” (VERA SALUS RICERCA S.R.L., priority 2017, dated 2024).

Assay [1] relates to melanoma, A375. In words: Apoptosis, acridine orange/ethidium bromide method. Type of assay: cell-based, human. As to conditions: 2 hrs; Compound 2 40 μM, 5 40 μM, 4 40 μM, 3 60 μM, 1 80 μM; FIG. 18. An excerpt:
(§1) Tumour cell apoptosis was quantified by the acridine orange/ethidium bromide (AO/EB) method and by using a fluorescence microscope and image-J. In short, after treatment with the test compounds (2 hrs), the tumour cells were placed in contact with an AO/EB solution (in sterile H2O) and photographed with a fluorescence microscope (Leica) by using the ≥20× objective (so as to distinguish the morphology of cell nuclei). In this way, the living cells are labelled with AO and emit fluorescence in the green channel, while the necrotic cells, which have undergone the rupture of the plasma membrane, are permeable to EB and emit fluorescence in the red channel. In contrast, apoptotic cells are permeable to both AO and EB, and as a consequence of the colocalization of the two fluorescences appear yellow-orange when the two individual microscope-acquired fluorescences are superimposed by using the editing program Image J. The objective quantification of the colocalization areas (apoptotic cells) and the non-colocalization areas (living or necrotic cells) was carried out on a number of cells ≥300/condition through the use of Apoptosis Correlator (ImageJ plug-in) and shown as the percentage of living (green), necrotic (red) or apoptotic (yellow-orange) tumour cells. Data analysis was carried out by using GraphPad Prism 6 for graphical representation and statistical processing (2-way ANOVA test).

Assay [2] deals with human pancreatic carcinoma cells (PANC-1). In words: Cell proliferation, crystal violet method. It counts as cell-based. As to conditions: for IC50: crystal violet, spectrophotometer, read-out: IC50 anti-proliferative effect, PCC (PANC-1); for PANC-1 cell growth vs vehicle control: 80 μM, FIG. 9a, 9b. How it is done: (§2) The compound according to the invention, and in particular the synthetic quercetin derivatives described and illustrated herein were investigated in vitro by using human tumour cells and assessing their impact on the tumour proliferative capacity, with regard to the tumours described above. In particular, the following human tumour cell lines were assessed experimentally: 1) HCT116, colon adenocarcinoma cells; 2) H1299, lung adenocarcinoma cells; 3) A375, melanoma cells, and 4) A431, squamous skin cell carcinoma; 5) 786-0, renal carcinoma cells; 6) PC3, prostate carcinoma cells; 7) BT549, mammary carcinoma cells; 8) CAL27, tongue carcinoma cells (belonging to the head-and-neck carcinomas); 9) HepG2, hepatocellular carcinoma cells; 10) PANC-1, pancreas carcinoma cells; 11) T24, bladder carcinoma cells; 12) OVCAR-3, ovarian carcinoma cells. In addition, a normal human cell line, WS1 (skin fibroblasts) was also treated with the novel synthetic compounds. Cell proliferation was quantified by the crystal violet method with a spectrophotometer. In short, after acquiring serial images (0, 24 and 48 hrs) with the EVOS XL Cell Imaging System microscope (Thermo Fisher Scientific), the cells imaged at 48 hrs were fixed with paraformaldehyde (4%) and stained with Crystal Violet (1%). Then, the specific absorbance (λ=590 nm) at 48 hrs was measured with a spectrophotometer (Infinite®200 PRO, Tecan). Data analysis was carried out by using ad-hoc Excel files for graphical representation and statistical processing (t-test). Moreover, the results obtained with Crystal Violet were confirmed by using another cell proliferation assessment method based on the real time cellular analyzer XCELLigence RTCA DP (ACEA Biosciences, Inc.). This tool allows cell growth to be monitored from electrical impedance-derived quantitative values (the so-called Cell Index) measured by tiny electrodes located at the base of the culture wells. Proliferation is monitored for several days (5-7) by setting a Cell Index per minute measure on the instrument. The data are analysed by processing various parameters calculated by the dedicated software, such as the cell duplication time, the slope and the Max Cell Index. […] Cell proliferation was quantitated spectrophotometrically by the crystal violet method.

Assay [3] relates to human prostate carcinoma cells (PC3). In words: Cell proliferation, crystal violet method. Type of assay: cell-based. The settings on record: for PC3 cell growth vs vehicle control: 80 μM, FIG. 5a, 5b; for IC50: crystal violet, spectrophotometer, read-out: IC50 anti-proliferative effect, PC - (PC3). The protocol:
as §2

Assay [4] concerns human bladder carcinoma cells (T24). As to the kind of experiment: Cell proliferation, crystal violet method. Type of assay: cell-based. The settings on record: for IC50: crystal violet, spectrophotometer, read-out: IC50 anti-proliferative effect, BC (T24); for T24 cell growth vs vehicle control: 80 μM, FIG. 10a, 10b. How it is done:
as §2

The subject of assay [5] is human renal carcinoma cells (786-0). In words: Cell proliferation, crystal violet method. Type of assay: cell-based. As to conditions: for 786-0 cell growth vs vehicle control: 80 μM, FIG. 4a, 4b; for IC50: crystal violet, spectrophotometer, read-out: IC50 anti-proliferative effect, RCC - (786-O). The protocol: as §2
Assay [6] relates to human melanoma cells (A375). As to the kind of experiment: Cell proliferation, crystal violet method. Type of assay: cell-based. As to conditions: for IC50: crystal violet, spectrophotometer, read-out: IC50 anti-proliferative effect, Melanoma (A375); for growth of melanoma cells (A375) vs vehicle control: 60 μM, FIG. 1a, 1b. How it is done:
(§3) The compound according to the invention, and in particular the synthetic quercetin derivatives described and illustrated herein were investigated in vitro by using human tumour cells and assessing their impact on the tumour proliferative capacity, with regard to the tumours described above. In particular, the following human tumour cell lines were assessed experimentally: 1) HCT116, colon adenocarcinoma cells; 2) H1299, lung adenocarcinoma cells; 3) A375, melanoma cells, and 4) A431, squamous skin cell carcinoma; 5) 786-0, renal carcinoma cells; 6) PC3, prostate carcinoma cells; 7) BT549, mammary carcinoma cells; 8) CAL27, tongue carcinoma cells (belonging to the head-and-neck carcinomas); 9) HepG2, hepatocellular carcinoma cells; 10) PANC-1, pancreas carcinoma cells; 11) T24, bladder carcinoma cells; 12) OVCAR-3, ovarian carcinoma cells. In addition, a normal human cell line, WS1 (skin fibroblasts) was also treated with the novel synthetic compounds.
(§4) Cell proliferation was quantified by the crystal violet method with a spectrophotometer. In short, after acquiring serial images (0, 24 and 48 hrs) with the EVOS XL Cell Imaging System microscope (Thermo Fisher Scientific), the cells imaged at 48 hrs were fixed with paraformaldehyde (4%) and stained with Crystal Violet (1%). Then, the specific absorbance (λ=590 nm) at 48 hrs was measured with a spectrophotometer (Infinite®200 PRO, Tecan). Data analysis was carried out by using ad-hoc Excel files for graphical representation and statistical processing (t-test). Moreover, the results obtained with Crystal Violet were confirmed by using another cell proliferation assessment method based on the real time cellular analyzer XCELLigence RTCA DP (ACEA Biosciences, Inc.). This tool allows cell growth to be monitored from electrical impedance-derived quantitative values (the so-called Cell Index) measured by tiny electrodes located at the base of the culture wells. Proliferation is monitored for several days (5-7) by setting a Cell Index per minute measure on the instrument. The data are analysed by processing various parameters calculated by the dedicated software, such as the cell duplication time, the slope and the Max Cell Index.
(§5) Cell proliferation was quantitated spectrophotometrically by the crystal violet method.

The subject of assay [7] is human mammary carcinoma cells (BT549). In words: Cell proliferation, crystal violet method. It counts as cell-based. The settings on record: for BT549 cell growth vs vehicle control: 80 μM, FIG. 6a, 6b; for IC50: crystal violet, spectrophotometer, read-out: IC50 anti-proliferative effect, BRC - (BT549). How it is done: as §3, §4, §5
The test system of assay [8] is human colon carcinoma cells (HCT116). In words: Cell proliferation, crystal violet method. Type of assay: cell-based. As to conditions: for IC50: crystal violet, spectrophotometer, read-out: IC50 anti-proliferative effect, CRC (HCT116); for HCT116 cell growth vs vehicle control: 100 μM, FIG. 3a, 3b, 13a, 13b. How it is done:
as §3, §4, §5

The test system of assay [9] is human colon (HCT116) tumour line. As to the kind of experiment: Apoptosis, acridine orange/ethidium bromide method. It counts as cell-based. As to conditions: 2 hrs; Compound 2 50 μM, 5 40 μM, 4 40 μM, 3 60 μM, 1 60 μM; FIG. 18.
Text: as §1

Assay [10] relates to SCC cells (A431). As to the kind of experiment: Cell proliferation, crystal violet method. It counts as cell-based, human. The settings on record: for A431 cell growth vs vehicle control: 90 μM, FIG. 2a, 2b; for IC50: crystal violet, spectrophotometer, read-out: IC50 anti-proliferative effect, SCC (A431). How it is done:
as §2

For the substance “2-(3,4-Dihydroxyphenyl)-3-ethoxy-5,7-dihydroxy-4H-chromen-4-one [Compound 1]”, the “induction of apoptosis in A375” value in [1] was “induced apoptosis”. Further, the IC50 in [2] was greater than 1000 µM; in assay [3], 79.3 µM; in assay [4], greater than 1000 µM; in assay [5], 149 µM; in [6] it was 67.1 µM; in [7], 191 µM. Further, the IC50 in assay [8] amounted to 166 µM. Further, in assay [3], the “PC3 cell growth vs vehicle control” value was “significantly inhibit”. For the same substance, the “786-0 cell growth vs vehicle control” value in assay [5] is recorded as “significantly inhibit”. In addition, the “BT549 cell growth vs vehicle control” value in assay [7] is “significantly inhibit”. In addition, in assay [9], the “induction of apoptosis in HCT116” value was “induced apoptosis”.
Regarding “2-(3,4-Dihydroxyphenyl)-3-hexadecyloxy-5,7-dihydroxy-4H-chromen-4-one [Compound 3]”, the “induction of apoptosis in A375” value in assay [1] is recorded as “induced apoptosis”. Also, the “PANC-1 cell growth vs vehicle control” value in assay [2] is “significantly inhibit”. The IC50 in [2] was found to be 156 µM; in assay [3] it was 46.2 µM; in [4] it was 44.9 µM; in assay [5], 65.4 µM; in assay [6], 48.1 µM; in assay [7], 119 µM. The IC50 in [8] worked out at 59.8 µM. Besides, in [3], the “PC3 cell growth vs vehicle control” value is “significantly inhibit”. In addition, the “T24 cell growth vs vehicle control” value in assay [4] is given as “significantly inhibit”. Further, the “786-0 cell growth vs vehicle control” value in assay [5] was “significantly inhibit”. In addition, the “BT549 cell growth vs vehicle control” value in assay [7] is recorded as “significantly inhibit”. Also, the “HCT116 cell growth vs vehicle control” value in assay [8] was “significantly inhibit”. In [9], the “induction of apoptosis in HCT116” value is reported as “induced apoptosis”.
In the case of “2-(3,4-Dihydroxyphenyl)-3-hexyloxy-5,7-dihydroxy-4H-chromen-4-one [Compound 2]”, the “induction of apoptosis in A375” value in [1] was “induced apoptosis”. Besides, in assay [10], the “A431 cell growth vs vehicle control” value is reported as “significantly inhibit” and the IC50 was 40.3 µM. In addition, in assay [2], the “PANC-1 cell growth vs vehicle control” value is “significantly inhibit” and the IC50 was 95.4 µM. In assay [3], the IC50 was determined as 309 µM. In [4], the “T24 cell growth vs vehicle control” value is listed as “significantly inhibit” and the IC50 worked out at 66.8 µM. Moreover, in assay [5], the “786-0 cell growth vs vehicle control” value was “significantly inhibit” and the IC50 amounted to 72.5 µM. Besides, in assay [6], the “growth of melanoma cells (A375) vs vehicle control” value (“growth … (A375) vs vehicle control” below) is “significantly inhibit” and the IC50 is 19.3 µM. Besides, in assay [7], the “BT549 cell growth vs vehicle control” value was “significantly inhibit” and the IC50 is 156 µM. In addition, in assay [8], the “HCT116 cell growth vs vehicle control” value was “significantly inhibit” and the IC50 amounted to 42.8 µM. The “induction of apoptosis in HCT116” value in assay [9] was “induced apoptosis”.
Take “2-(3,4-dihydroxyphenyl)-5,7-dihydroxy-4-oxo-4H-chromen-3-yl acetate [Compound 4]”: in [1], the “induction of apoptosis in A375” value was “induced apoptosis”. Further, in [10], the “A431 cell growth vs vehicle control” value is “significantly inhibit” and the IC50 is 31 µM. Besides, in assay [2], the “PANC-1 cell growth vs vehicle control” value is on record as “significantly inhibit” and the IC50 amounted to 69.6 µM. Besides, in assay [3], the “PC3 cell growth vs vehicle control” value is “significantly inhibit” and the IC50 came out at 34.9 µM. In [4], the “T24 cell growth vs vehicle control” value is on record as “significantly inhibit” and the IC50 was 45.5 µM. Further, in assay [5], the “786-0 cell growth vs vehicle control” value is “significantly inhibit” and the IC50 was determined as 41.2 µM. In [6], the “growth … (A375) vs vehicle control” value is “significantly inhibit” and the IC50 came out at 20.1 µM. In [7], the “BT549 cell growth vs vehicle control” value is listed as “significantly inhibit” and the IC50 is 48.6 µM. Besides, in assay [8], the “HCT116 cell growth vs vehicle control” value is recorded as “significantly inhibit” and the 50% inhibitory concentration (IC50) is 22.9 µM. The “induction of apoptosis in HCT116” value in assay [9] was “induced apoptosis”.
In the case of “2-(3,4-dihydroxyphenyl)-5,7-dihydroxy-4-oxo-4H-chromen-3-yl palmitate [Compound 5]”, the “induction of apoptosis in A375” value in assay [1] is on record as “induced apoptosis”. In [10], the “A431 cell growth vs vehicle control” value was “significantly inhibit” and the 50% inhibitory concentration (IC50) is 25.5 µM. Besides, in [2], the “PANC-1 cell growth vs vehicle control” value is “significantly inhibit” and the IC50 turned out to be 69.4 µM. Further, in assay [3], the “PC3 cell growth vs vehicle control” value was “significantly inhibit” and the IC50 came out at 56.9 µM. In addition, in assay [4], the “T24 cell growth vs vehicle control” value was “significantly inhibit” and the IC50 was found to be 50.5 µM. Also, in assay [5], the “786-0 cell growth vs vehicle control” value is “significantly inhibit” and the IC50 amounted to 32.6 µM. In assay [6], the “growth … (A375) vs vehicle control” value is “significantly inhibit” and the IC50 turned out to be 16.4 µM. Further, in assay [7], the “BT549 cell growth vs vehicle control” value is “significantly inhibit” and the IC50 was found to be 46.5 µM. In [8], the “HCT116 cell growth vs vehicle control” value is listed as “significantly inhibit” and the IC50 worked out at 28.8 µM. In addition, the “induction of apoptosis in HCT116” value in [9] is “induced apoptosis”.

The IC50 is the concentration that inhibits the measured activity by half.
